Converted amounts (≈) assume the structure as drawn. Starred links: 1 amine or outer side, 2 acyl side, 3 side chain; linkers in the order of their positions; H or OH if unused. Positions of bridges follow the written chain, without caps; N, C: chain ends. Residues, ends and D or L forms follow the SMILES beside them. 2,2'Bipyridine(5,5'-diCH2) = c1cc(-c2ccc(C[*:2])cn2)ncc1C[*:1]; mXylylene = c1cc(C[*:1])cc(C[*:2])c1; pXylylene = c1cc(C[*:2])ccc1C[*:1]; X1 = C(=CC[*:2])C[*:1]
Assays:
[1] = test system: Klebsiella pneumoniae (K. pneumoniae); format: cell-based; conditions: microbroth dilution, 20-24 hours at 37° C.
Procedure, shortened: (§1)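 Broth microdilution adapted from CLSI in Mueller-Hinton broth or cation-adjusted MHB II; overnight cultures at 37 °C were regrown 3-4 h, then added to serially diluted peptide at a final 5×10^5 CFU/ml. After 20-24 h at 37 °C, MIC was taken as the lowest peptide concentration with no visible growth.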

[2] = test system: Escherichia coli (E. coli); format: cell-based; conditions: microbroth dilution, 20-24 hours at 37° C.
Procedure, shortened: as §1

[3] = test system: Acinetobacter baumannii (A. baumannii); format: cell-based; conditions: microbroth dilution, 20-24 hours at 37° C.
Procedure, shortened: as §1

[4] = test system: Staphylococcus aureus (S. aureus); format: cell-based; conditions: microbroth dilution, 20-24 hours at 37° C.
Procedure, shortened: as §1

[5] = test system: Pseudomonas aeruginosa (P. aeruginosa); format: cell-based; conditions: microbroth dilution, 20-24 hours at 37° C.
Procedure, shortened: as §1

[6] = 90 minute cytotoxicity assay (LDH release), renal toxicity; format: cell-based; conditions: 90 minutes of incubation, LDH release; read-out: Inhibitory Concentration at 50% Cytotoxicity (IC50) Human Renal Proximal Tubule Epithelial Cells (RPTEC)
Procedure, shortened: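 RPTEC plated overnight, given fresh medium, then exposed to serial peptide dilutions or vehicle for 90 min at 37° C. Medium LDH measured by 10 min reagent incubation and absorbance at 490 nm.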

[7] = 48 hours cytotoxicity assay (CellTiter-Glo), liver toxicity; format: cell-based, human; conditions: 48 hours of incubation, CellTiter-Glo; read-out: Inhibitory Concentration at 50% Cytotoxicity (IC50) Human Liver Cells (HepG2)
Procedure, shortened: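 HepG2 cells in EMEM with 10% FBS, allowed to attach 4 h, then exposed to serially diluted StAMPs or vehicle for 48 h at 37 °C. Viability read by CellTiter-Glo luminescence.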

| SMILES | Minimum Inhibitory Concentration (MIC) K. pneumoniae [1] [µg/mL] | Minimum Inhibitory Concentration (MIC) E. coli [2] [µg/mL] | Minimum Inhibitory Concentration (MIC) A. baumannii [3] [µg/mL] | Minimum Inhibitory Concentration (MIC) S. aureus [4] [µg/mL] | Minimum Inhibitory Concentration (MIC) P. aeruginosa [5] [µg/mL] | IC50 [6] [µg/mL] | IC50 [7] [µg/mL] |
| --- | --- | --- | --- | --- | --- | --- | --- |
| CC[C@H](C)[C@H](NC(=O)CN)C(=O)N[C@@H](Cc1ccccc1)C(=O)N[C@@H](CO)C(=O)N[C@@H](CCCCN)C(=O)N[C@@H](CC(C)C)C(=O)N[C@@H](C)C(=O)NCC(=O)N[C@@H](CCCCN)C(=O)N[C@@H](CCCCN)C(=O)N[C@H](C(=O)N[C@@H](CCCCN)C(=O)N[C@@H](CC(N)=O)C(=O)N[C@@H](CC(C)C)C(=O)N[C@H]1CSCC=CCSC[C@@H](C(=O)N[C@@H](CCCCN)C(=O)NCC(N)=O)NC(=O)CNC(=O)[C@H](CO)NC(=O)[C@H]([C@@H](C)CC)NC1=O)[C@@H](C)CC [compound 31] (H-GIFSKLAGKKIKNLCISGCKG-NH2; linker 15-19 via X1) | >64 | >64 | >64 | >64 | >64 | > 200 | > 200 |
| CC[C@H](C)[C@H](NC(=O)CN)C(=O)N[C@@H](Cc1ccccc1)C(=O)N[C@@H](CO)C(=O)N[C@@H](CCCCN)C(=O)N[C@@H](CC(C)C)C(=O)N[C@@H](C)C(=O)NCC(=O)N[C@@H](CCCCN)C(=O)N[C@@H](CCCCN)C(=O)N[C@H](C(=O)N[C@@H](CCCCN)C(=O)N[C@@H](CC(N)=O)C(=O)N[C@@H](CC(C)C)C(=O)N[C@@H](CC(C)C)C(=O)N[C@H]1CSCc2cccc(c2)CSC[C@@H](C(=O)NCC(N)=O)NC(=O)[C@H](CC(C)C)NC(=O)CNC(=O)[C@H](CO)NC1=O)[C@@H](C)CC [compound 32] (H-GIFSKLAGKKIKNLLCSGLCG-NH2; linker 16-20 via mXylylene) | 8 | 2 | 2 | >64 | 16 | 30 (≈ 13.3 µM) | 41 (≈ 18.2 µM) |
| CC[C@H](C)[C@H](NC(=O)CN)C(=O)N[C@@H](Cc1ccccc1)C(=O)N[C@@H](CO)C(=O)N[C@@H](CCCCN)C(=O)N[C@@H](CC(C)C)C(=O)N[C@@H](C)C(=O)NCC(=O)N[C@@H](CCCCN)C(=O)N[C@@H](CCCCN)C(=O)N[C@H](C(=O)N[C@@H](CCCCN)C(=O)N[C@@H](CC(N)=O)C(=O)N[C@@H](CC(C)C)C(=O)N[C@@H](CC(C)C)C(=O)N[C@H]1CSCc2ccc(cc2)CSC[C@@H](C(=O)NCC(N)=O)NC(=O)[C@H](CC(C)C)NC(=O)CNC(=O)[C@H](CO)NC1=O)[C@@H](C)CC [compound 33] (H-GIFSKLAGKKIKNLLCSGLCG-NH2; linker 16-20 via pXylylene) | 8 | 4 | 4 | 64 | 16 | 59 (≈ 26.2 µM) | 57 (≈ 25.3 µM) |
| CC[C@H](C)[C@H](NC(=O)[C@H](CC(C)C)NC(=O)[C@H](CC(C)C)NC(=O)[C@H](CC(N)=O)NC(=O)[C@H](CCCCN)NC(=O)[C@@H](NC(=O)[C@H](CCCCN)NC(=O)[C@H](CCCCN)NC(=O)[C@@H]1CSCc2ccc(nc2)-c2ccc(cn2)CSC[C@H](N)C(=O)N[C@@H]([C@@H](C)CC)C(=O)N[C@@H](Cc2ccccc2)C(=O)N[C@@H](CO)C(=O)N[C@@H](CCCCN)C(=O)N[C@@H](CC(C)C)C(=O)N[C@@H](C)C(=O)N1)[C@@H](C)CC)C(=O)N[C@@H](CO)C(=O)NCC(=O)N[C@@H](CC(C)C)C(=O)N[C@@H](CCCCN)C(=O)NCC(N)=O [compound 49] (H-CIFSKLACKKIKNLLISGLKG-NH2; linker 1-8 via 2,2'Bipyridine(5,5'-diCH2); N-terminus assumed) | >64 | 32 | 32 | >64 | >64 | 60 (≈ 24.4 µM) | 22 (≈ 8.95 µM) |
